Read-outs that look alike come from different tables or passages of the source.

One test deals with FGFR1 (Homo sapiens (Human), UniProt P11362). The test can be described thus: FGFR Enzymatic Assay (FGFR1). Format: biochemical. The following applies: enzyme 0.02 nM, ATP 210 μM.
Another test has as its target FGFR2 (Homo sapiens (Human), UniProt P21802). Briefly: FGFR Enzymatic Assay (FGFR2).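 Also: FRET read-out of peptide phosphorylation by the purified kinase, with enzyme-free blank and uninhibited enzyme as controls, potency from a variable-slope sigmoidal dose-response fit.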 Type of test: biochemical.
Test [1] addresses T1, FGFR3 enzyme (Millipore) (Homo sapiens (Human), UniProt P22607). The test can be described thus: biochemical.
The target of test [2] is T1, FGFR3 enzyme (Millipore). As to conditions: read-out: FGFR3 IC50, ATP 140 μM.
[3] abbreviates: enzyme 0.01 nM, ATP 100 μM, read-out: FGFR2 IC50.

T1 sequence (P22607 23-806): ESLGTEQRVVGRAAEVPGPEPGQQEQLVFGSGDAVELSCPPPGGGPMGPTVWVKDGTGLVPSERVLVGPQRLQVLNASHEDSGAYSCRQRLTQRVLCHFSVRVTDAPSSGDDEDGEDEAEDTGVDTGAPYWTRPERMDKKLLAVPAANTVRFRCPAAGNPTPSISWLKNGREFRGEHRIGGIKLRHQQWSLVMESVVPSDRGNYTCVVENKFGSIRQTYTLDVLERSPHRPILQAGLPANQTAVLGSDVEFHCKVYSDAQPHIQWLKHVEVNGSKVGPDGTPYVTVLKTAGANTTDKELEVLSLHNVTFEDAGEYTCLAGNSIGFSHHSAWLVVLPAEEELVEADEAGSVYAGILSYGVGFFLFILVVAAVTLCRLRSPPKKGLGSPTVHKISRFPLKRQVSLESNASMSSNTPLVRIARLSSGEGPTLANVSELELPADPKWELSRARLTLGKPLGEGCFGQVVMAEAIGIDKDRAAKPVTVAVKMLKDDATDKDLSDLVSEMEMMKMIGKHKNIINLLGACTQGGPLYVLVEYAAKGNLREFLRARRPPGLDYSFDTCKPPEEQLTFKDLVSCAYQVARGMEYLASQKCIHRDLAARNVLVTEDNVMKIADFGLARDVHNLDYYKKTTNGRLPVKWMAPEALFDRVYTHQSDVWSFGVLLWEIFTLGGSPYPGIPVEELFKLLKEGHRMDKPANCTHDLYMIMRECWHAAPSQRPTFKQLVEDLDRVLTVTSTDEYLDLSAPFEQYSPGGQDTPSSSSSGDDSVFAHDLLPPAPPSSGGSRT
Sequence of FGFR2 (P21802 22-821): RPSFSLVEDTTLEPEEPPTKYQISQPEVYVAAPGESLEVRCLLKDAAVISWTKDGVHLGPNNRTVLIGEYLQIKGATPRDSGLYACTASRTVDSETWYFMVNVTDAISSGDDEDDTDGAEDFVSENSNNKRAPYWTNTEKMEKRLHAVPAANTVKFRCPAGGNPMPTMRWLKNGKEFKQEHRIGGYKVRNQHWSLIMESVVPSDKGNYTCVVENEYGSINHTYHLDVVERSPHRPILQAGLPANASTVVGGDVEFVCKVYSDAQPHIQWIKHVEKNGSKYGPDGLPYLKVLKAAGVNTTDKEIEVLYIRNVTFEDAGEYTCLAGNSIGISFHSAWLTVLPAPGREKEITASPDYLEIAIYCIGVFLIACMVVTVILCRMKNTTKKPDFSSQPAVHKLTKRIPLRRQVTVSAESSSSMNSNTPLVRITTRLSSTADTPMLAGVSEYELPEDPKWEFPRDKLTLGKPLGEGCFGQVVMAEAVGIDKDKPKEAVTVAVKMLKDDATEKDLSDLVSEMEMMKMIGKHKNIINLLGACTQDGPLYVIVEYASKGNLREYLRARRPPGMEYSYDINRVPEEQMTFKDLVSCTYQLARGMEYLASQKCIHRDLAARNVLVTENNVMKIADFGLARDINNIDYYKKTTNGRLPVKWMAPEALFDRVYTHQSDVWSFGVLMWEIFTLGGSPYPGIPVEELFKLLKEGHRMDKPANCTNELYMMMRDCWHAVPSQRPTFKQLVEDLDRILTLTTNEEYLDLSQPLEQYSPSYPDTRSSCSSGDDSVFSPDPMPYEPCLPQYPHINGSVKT
Sequence of FGFR1 (P11362 22-822): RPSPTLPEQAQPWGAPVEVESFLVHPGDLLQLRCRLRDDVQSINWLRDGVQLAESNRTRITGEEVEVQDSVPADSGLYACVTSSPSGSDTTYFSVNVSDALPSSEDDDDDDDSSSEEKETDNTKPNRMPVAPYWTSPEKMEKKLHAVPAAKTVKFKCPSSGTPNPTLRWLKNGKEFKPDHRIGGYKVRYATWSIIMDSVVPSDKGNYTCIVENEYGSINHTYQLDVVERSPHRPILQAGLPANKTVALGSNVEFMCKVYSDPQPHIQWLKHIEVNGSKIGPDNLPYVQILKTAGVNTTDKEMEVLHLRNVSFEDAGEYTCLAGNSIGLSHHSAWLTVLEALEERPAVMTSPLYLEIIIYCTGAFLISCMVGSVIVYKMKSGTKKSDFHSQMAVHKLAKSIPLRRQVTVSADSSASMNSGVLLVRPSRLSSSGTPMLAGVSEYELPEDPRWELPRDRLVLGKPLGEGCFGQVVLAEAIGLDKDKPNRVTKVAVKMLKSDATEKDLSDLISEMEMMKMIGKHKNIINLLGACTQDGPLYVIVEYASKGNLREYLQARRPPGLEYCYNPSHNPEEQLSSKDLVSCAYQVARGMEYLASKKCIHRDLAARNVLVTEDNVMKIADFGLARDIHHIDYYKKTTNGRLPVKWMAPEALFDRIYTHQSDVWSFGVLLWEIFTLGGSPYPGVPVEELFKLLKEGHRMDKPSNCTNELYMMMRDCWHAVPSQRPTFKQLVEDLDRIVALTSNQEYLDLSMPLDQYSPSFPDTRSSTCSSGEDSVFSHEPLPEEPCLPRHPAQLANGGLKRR
Procedure for FGFR1: (§1) The inhibitor potency of compounds was measured in an enzyme assay that measures peptide phosphorylation using FRET measurements to detect product formation. Inhibitors were serially diluted in DMSO and a volume of 0.5 μL was transferred to the wells of a 384-well plate. For FGFR3, a 10 μL volume of FGFR3 enzyme (Millipore) diluted in assay buffer (50 mM HEPES, 10 mM MgCl2, 1 mM EGTA, 0.01% Tween-20, 5 mM DTT, pH 7.5) was added to the plate and pre-incubated for 5-10 minutes. Appropriate controls (enzyme blank and enzyme with no inhibitor) were included on the plate. […] The plate was incubated at 25° C. for 1 hr. […] The plate was allowed to equilibrate for ˜1 hr before scanning the wells on a PheraStar plate reader.
(§2) GraphPad prism3 was used to analyze the data. The IC50 values were derived by fitting the data to the equation for a sigmoidal dose-response with a variable slope. Y=Bottom+(Top−Bottom)/(1+10^((Log IC50−X)*HillSlope)) where X is the logarithm of concentration and Y is the response.
Procedure for FGFR2: as §1, §2

One may read the IC50 as the point on the concentration scale where inhibition reaches its midpoint. Take `COc1cc(CCc2cnc3[nH]c(-c4c(F)cccc4F)cc3n2)cc(OC)c1` [Example 4, 6-(2,6-difluorophenyl)-2-(3,5-dimethoxyphenethyl)-5H-pyrrolo[2,3-b]pyrazine]: the values for the IC50 against FGFR1, against FGFR2 and against FGFR3 enzyme (Millipore) [1] were under 100 nM, 100 to 500 nM and 500 to 2700 nM, respectively.
For `COc1cc(CCc2cnc3[nH]c(-c4ccc(NC(C)=O)cc4)cc3n2)cc(OC)c1` [Example 6, N-(4-{2-[2-(3,5-dimethoxyphenyl)ethyl]-5H-pyrrolo[2,3-b]pyrazin-6-yl}phenyl)acetamide], the IC50 was under 100 nM on FGFR1, under 100 nM at FGFR2 (setting [3]) and 100 to 500 nM against FGFR3 enzyme (Millipore) [1].
Consider `COc1cc(CCc2cnc3[nH]c(-c4ccc(C(=O)N(C)C)cc4)cc3n2)cc(OC)c1` [Example 7, 4-{2-[2-(3,5-dimethoxyphenyl)ethyl]-5H-pyrrolo[2,3-b]pyrazin-6-yl}-N,N-dimethylbenzamide], for which the figures for the IC50 at FGFR1, at FGFR2 (setting [3]) and on FGFR3 enzyme (Millipore) [1] were under 100 nM, under 100 nM and 100 to 500 nM, respectively.
Regarding `COc1cc(CCc2cnc3[nH]c(-c4ccc(C(F)(F)F)cc4)cc3n2)cc(OC)c1` [Example 8, 2-[2-(3,5-dimethoxyphenyl)ethyl]-6-[4-(trifluoromethyl)phenyl]-5H-pyrrolo[2,3-b]pyrazine], the values for the IC50 on FGFR1, against FGFR2 and at FGFR3 enzyme (Millipore) [1] were under 100 nM, 100 to 500 nM and 100 to 500 nM, respectively.
Turning to `COc1cc(CCc2cnc3[nH]c(-c4ccccc4C)cc3n2)cc(OC)c1` [Example 9, 2-[2-(3,5-dimethoxyphenyl)ethyl]-6-(2-methylphenyl)-5H-pyrrolo[2,3-b]pyrazine], the figures for the IC50 at FGFR1, on FGFR2 and against FGFR3 enzyme (Millipore) [1] were under 100 nM, 100 to 500 nM and 500 to 2700 nM, respectively.
Take `COc1cc(CCc2cnc3[nH]c(-c4ccccc4C#N)cc3n2)cc(OC)c1` [Example 10, 2-{2-[2-(3,5-dimethoxyphenyl)ethyl]-5H-pyrrolo[2,3-b]pyrazin-6-yl}benzonitrile]: the results for the IC50 on FGFR1, on FGFR2 (setting [3]) and on FGFR3 enzyme (Millipore) [1] were under 100 nM, under 100 nM and 500 to 2700 nM, respectively.
Consider `COc1cc(CCc2cnc3[nH]c(-c4ccc(CC#N)cc4)cc3n2)cc(OC)c1` [Example 14, (4-{2-[2-(3,5-dimethoxyphenyl)ethyl]-5H-pyrrolo[2,3-b]pyrazin-6-yl}phenyl)acetonitrile], for which the IC50 on FGFR1 was under 100 nM; at FGFR2 (setting [3]), under 100 nM; against FGFR3 enzyme (Millipore) [1] it was 100 to 500 nM.
Take `COc1cc(CCc2cnc3[nH]c(-c4ccc(N5CCN(C)CC5)nc4)cc3n2)cc(OC)c1` [Example 16, 2-[2-(3,5-dimethoxyphenyl)ethyl]-6-[6-(4-methylpiperazin-1-yl)pyridin-3-yl]-5H-pyrrolo[2,3-b]pyrazine]: the IC50 at FGFR1 is under 100 nM; at FGFR2 (setting [3]) it was under 100 nM; against FGFR3 enzyme (Millipore) [1], 100 to 500 nM.
Regarding `CNC(=O)c1ccc(-c2cc3nc(CCc4cc(OC)cc(OC)c4)cnc3[nH]2)cn1` [Example 17, 5-{2-[2-(3,5-dimethoxyphenyl)ethyl]-5H-pyrrolo[2,3-b]pyrazin-6-yl}-N-methylpyridine-2-carboxamide], the values for the IC50 at FGFR1, at FGFR2 (setting [3]) and against FGFR3 enzyme (Millipore) [1] were under 100 nM, under 100 nM and 100 to 500 nM, respectively.
On to `COc1cc(CCc2cnc3[nH]c(-c4cncc(C(=O)N5CCOCC5)c4)cc3n2)cc(OC)c1` [Example 18, 2-[2-(3,5-dimethoxyphenyl)ethyl]-6-[5-(morpholin-4-ylcarbonyl)pyridin-3-yl]-5H-pyrrolo[2,3-b]pyrazine], for which the IC50 against FGFR1 was under 100 nM; on FGFR2 (setting [3]) it was under 100 nM; against FGFR3 enzyme (Millipore) [1] it was 500 to 2700 nM.
On to `COc1cc(CCc2cnc3[nH]c(C4=CCN(C)CC4)cc3n2)cc(OC)c1` [Example 23, 2-[2-(3,5-dimethoxyphenyl)ethyl]-6-(1-methyl-1,2,3,6-tetrahydropyridin-4-yl)-5H-pyrrolo[2,3-b]pyrazine], for which the values for the IC50 on FGFR1, at FGFR2 (setting [3]) and on FGFR3 enzyme (Millipore) [1] were under 100 nM, under 100 nM and 100 to 500 nM, respectively.
For `COc1cc(CCc2cnc3[nH]c(-c4cn[nH]c4)cc3n2)cc(OC)c1` [Example 29, 2-[2-(3,5-dimethoxyphenyl)ethyl]-6-(1H-pyrazol-4-yl)-5H-pyrrolo[2,3-b]pyrazine], the figures for the IC50 against FGFR1, on FGFR2 (setting [3]) and against FGFR3 enzyme (Millipore) [1] were under 100 nM, under 100 nM and 100 to 500 nM, respectively.
Turning to `COc1cc(CCc2cnc3[nH]c(-c4cnn(C)c4)cc3n2)cc(OC)c1` [Example 30, 2-[2-(3,5-dimethoxyphenyl)ethyl]-6-(1-methyl-1H-pyrazol-4-yl)-5H-pyrrolo[2,3-b]pyrazine], the IC50 against FGFR1 is under 100 nM; on FGFR2 (setting [3]), under 100 nM; on FGFR3 enzyme (Millipore) [1] it was 100 to 500 nM.
Regarding `COc1cc(CCc2cnc3[nH]c(-c4cnn(C5CCN(C)CC5)c4)cc3n2)cc(OC)c1` [Example 37, 2-[2-(3,5-dimethoxyphenyl)ethyl]-6-[1-(1-methylpiperidin-4-yl)-1H-pyrazol-4-yl]-5H-pyrrolo[2,3-b]pyrazine], the values for the IC50 against FGFR1, at FGFR2 (setting [3]) and against FGFR3 enzyme (Millipore) [1] were under 100 nM, under 100 nM and 100 to 500 nM, respectively.
Regarding `COc1cc(CCc2cnc3[nH]c(-c4cnn(CCO)c4)cc3n2)cc(OC)c1` [Example 38, 2-(4-{2-[2-(3,5-dimethoxyphenyl)ethyl]-5H-pyrrolo[2,3-b]pyrazin-6-yl}-1H-pyrazol-1-yl)ethanol], the IC50 on FGFR1 was under 100 nM; on FGFR2 (setting [3]), under 100 nM; against FGFR3 enzyme (Millipore) [1], 100 to 500 nM.
Turning to `COc1cc(CCc2cnc3[nH]c(-c4cnn(CCN5CCN(C)CC5)c4)cc3n2)cc(OC)c1` [Example 42, 2-[2-(3,5-dimethoxyphenyl)ethyl]-6-{1-[2-(4-methylpiperazin-1-yl)ethyl]-1H-pyrazol-4-yl}-5H-pyrrolo[2,3-b]pyrazine], the IC50 against FGFR1 was under 100 nM; at FGFR2 (setting [3]), under 100 nM; at FGFR3 enzyme (Millipore) [1], 100 to 500 nM.
Take `COc1cc(CCc2cnc3[nH]c(-c4cnn(CC(=O)N(C)C)c4)cc3n2)cc(OC)c1` [Example 43, 2-(4-{2-[2-(3,5-dimethoxyphenyl)ethyl]-5H-pyrrolo[2,3-b]pyrazin-6-yl}-1H-pyrazol-1-yl)-N,N-dimethylacetamide]: the IC50 against FGFR1 was under 100 nM; at FGFR2 (setting [3]), under 100 nM; against FGFR3 enzyme (Millipore) [1] it was 100 to 500 nM.
With `CNC(=O)c1c(-c2ccc(N3CCN(C)CC3)cc2)[nH]c2ncc(CCc3cc(OC)cc(OC)c3)nc12` [Example 50, 2-[2-(3,5-dimethoxyphenyl)ethyl]-N-methyl-6-[4-(4-methylpiperazin-1-yl)phenyl]-5H-pyrrolo[2,3-b]pyrazine-7-carboxamide], the IC50 is under 100 nM at FGFR1, under 100 nM at FGFR2 (setting [3]) and 500 to 2700 nM against FGFR3 enzyme (Millipore) [1].
With `COc1cc(CCc2cnc3[nH]c(-c4ccc(N5CCN(C)C(=O)C5)cc4)cc3n2)cc(OC)c1` [Example 81, 4-(4-(2-(3,5-Dimethoxyphenethyl)-5H-pyrrolo[2,3-b]pyrazin-6-yl)phenyl)-1-methylpiperazin-2-one], the IC50 against FGFR1, at FGFR2 (setting [3]) and on FGFR3 enzyme (Millipore) [2] (class symbols) was under 100 nM throughout.
`COc1cc(CCc2cnc3[nH]c(-c4ccc(N5CCN(C)CC5)cc4)cc3n2)c(F)c(OC)c1` [Example 82, 2-(2-Fluoro-3,5-dimethoxyphenethyl)-6-(4-(4-methylpiperazin-1-yl)phenyl)-5H-pyrrolo[2,3-b]pyrazine]: the IC50 against FGFR1, at FGFR2 (setting [3]) and on FGFR3 enzyme (Millipore) [2] (class symbols) was under 100 nM in each case.
In the case of `COc1cc(OC)c(F)c(CCc2cnc3[nH]c(-c4cn[nH]c4C)cc3n2)c1F` [Example 83, 2-[2-(2,6-difluoro-3,5-dimethoxyphenyl)ethyl]-6-(5-methyl-1H-pyrazol-4-yl)-5H-pyrrolo[2,3-b]pyrazine], the IC50 against FGFR1, at FGFR2 (setting [3]) and on FGFR3 enzyme (Millipore) [2] (class symbols) was under 100 nM throughout.
As for `COc1cc(OC)c(F)c(CCc2cnc3[nH]c(-c4cnn(C)c4)cc3n2)c1F` [Example 84, 2-(2,6-difluoro-3,5-dimethoxyphenethyl)-6-(1-methyl-1H-pyrazol-4-yl)-5H-pyrrolo[2,3-b]pyrazine], the IC50 at FGFR1, at FGFR2 (setting [3]) and on FGFR3 enzyme (Millipore) [2] (class symbols) was under 100 nM in each case.
Regarding `COc1cc(OC)c(F)c(CCc2cnc3[nH]c(-c4ccccc4C#N)cc3n2)c1F` [Example 85, 2-(2-(2,6-difluoro-3,5-dimethoxyphenethyl)-5H-pyrrolo[2,3-b]pyrazin-6-yl)benzonitrile], the IC50 against FGFR1, at FGFR2 (setting [3]) and at FGFR3 enzyme (Millipore) [2] (class symbols) was under 100 nM each time.
Turning to `COc1cc(OC)c(F)c(CCc2cnc3[nH]c(-c4cccnc4OC)cc3n2)c1F` [Example 86, 2-(2,6-difluoro-3,5-dimethoxyphenethyl)-6-(2-methoxypyridin-3-yl)-5H-pyrrolo[2,3-b]pyrazine], the IC50 on FGFR1, at FGFR2 (setting [3]) and on FGFR3 enzyme (Millipore) [2] (class symbols) was under 100 nM each time.
Consider `COc1cc(OC)c(F)c(CCc2cnc3[nH]c(-c4cnn(CCN(C)C)c4)cc3n2)c1F` [Example 87, 2-(4-(2-(2,6-difluoro-3,5-dimethoxyphenethyl)-5H-pyrrolo[2,3-b]pyrazin-6-yl)-1H-pyrazol-1-yl)-N,N-dimethylethanamine], for which the concentration for half-maximal inhibition (IC50) on FGFR1, on FGFR2 (setting [3]) and on FGFR3 enzyme (Millipore) [2] (class symbols) was under 100 nM in each case.
Consider `COc1cc(OC)c(F)c(CCc2cnc3[nH]c(-c4cnn(CC(C)(C)O)c4)cc3n2)c1F` [Example 88, 1-(4-(2-(2,6-difluoro-3,5-dimethoxyphenethyl)-5H-pyrrolo[2,3-b]pyrazin-6-yl)-1H-pyrazol-1-yl)-2-methylpropan-2-ol], for which the IC50 on FGFR1, on FGFR2 (setting [3]) and on FGFR3 enzyme (Millipore) [2] (class symbols) was under 100 nM in each case.
`CNC(=O)c1cc2nc(CCc3c(F)c(OC)cc(OC)c3F)cnc2[nH]1` [Example 89, 2-(2,6-difluoro-3,5-dimethoxyphenethyl)-N-methyl-5H-pyrrolo[2,3-b]pyrazine-6-carboxamide]: the IC50 at FGFR1 was under 100 nM; on FGFR2 (setting [3]) it was under 100 nM; on FGFR3 enzyme (Millipore) [2] (numeric bounds), over 400 nM.

(Values after patent US9745311B2, “Substituted pyrrolo[2,3-b]pyrazines as FGFR inhibitors” (Incyte Corporation, priority 2012, dated 2017).)
